Results taken from PMC9101642 (Molecules, 2022).
Marks after values point to notes of the source that are not given here.

Tests used:
[1] = Lipophilicity by shake-flask method; conditions: pH 7.4
MCF-7 cells = test: Cell cycle distribution by flow cytometry; format: cell-based, human; conditions: 24 h
[2] = rat, in vivo
[3] = Pharmacokinetics study, oral bioavailability; conditions: rat
[4] = test system: p53 promoter activity (p21 promoter); test: qChIP of ERα-p53 interaction on the p21 promoter in MCF-7; format: cell-based, human
ERα = target: T1, ERα (Homo sapiens, UniProt P03372); test: Fluorescence polarization competition assay: antagonistic potency and relative binding affinity; conditions: for Ki: calculated antagonistic (inhibitory) constant, read-out: Ka ERα; for IC50: concentration that antagonizes 50% of ERα signaling activity, read-out: ERα (IC50 nM); for logRBA ERα: log of % relative binding affinity, estradiol = 100%; for ERα potency, fold higher than Ral: ratio of IC50 values
T1 sequence (P03372 1-595): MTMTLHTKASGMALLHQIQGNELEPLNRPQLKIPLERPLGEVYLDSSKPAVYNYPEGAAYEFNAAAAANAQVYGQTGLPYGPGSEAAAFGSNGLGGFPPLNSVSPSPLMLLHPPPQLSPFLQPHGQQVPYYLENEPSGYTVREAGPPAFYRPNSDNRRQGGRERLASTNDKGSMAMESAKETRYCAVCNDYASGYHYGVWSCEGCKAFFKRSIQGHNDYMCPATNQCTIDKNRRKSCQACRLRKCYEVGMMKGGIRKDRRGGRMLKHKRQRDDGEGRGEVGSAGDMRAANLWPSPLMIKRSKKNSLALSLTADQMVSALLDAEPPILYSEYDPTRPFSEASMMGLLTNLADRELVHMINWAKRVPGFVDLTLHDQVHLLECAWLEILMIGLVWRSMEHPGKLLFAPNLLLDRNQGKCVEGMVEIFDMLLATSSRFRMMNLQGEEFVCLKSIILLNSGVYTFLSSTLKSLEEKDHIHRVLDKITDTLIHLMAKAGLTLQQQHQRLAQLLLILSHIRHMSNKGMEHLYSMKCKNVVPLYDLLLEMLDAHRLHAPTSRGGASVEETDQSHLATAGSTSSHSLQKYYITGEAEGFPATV

[5] = Plasma protein binding determination; format: in vitro ADME, rat; conditions: rat plasma, 37 °C, read-out: Rat PPB (%free)
Description: Rats were housed at 3 per cage and
The breast cancer was induced after the MNU (Sigma Aldrich CAS No. 684-93-5) administration. An aqueous solution at a concentration of 10 mg/ml was made by wetting the NMU powder with 3% acetic acid and then dissolving it in 0.9% NaCl solution; a fresh solution was prepared for each injection. Rats were given intraperitoneal (i.p.) 50 mg/kg of MNU on the 50th day of age. Animals were divided into different groups with six animals in each group. Group I (intact control) received 0.9% NaCl solution.
Groups II-IV and V-VII were introduced with MNU. Two weeks after MNU treatment, animals were treated orally with synthesized compounds and control substances (5 and 50 mg/kg, for groups II-IV and V-VII, respectively) by gavage once per day for six weeks. Animals in the intact control group and untreated MNU group were given vehicle (Tween 80) according to the experimental protocol. […]
Upon finishing the treatment with synthesized compounds, animals were sacrificed, and plasma, serum, and liver samples were collected. […]
Rat plasma containing either 5 or 50 mg/kg bwt of the tested compounds was incubated at 37°C upper reservoir of the washed Centri-free YM-30 ultrafiltration units (Millipore, Bedford, MA) and then centrifuged for 20 min at 2,000 g. Aliquots of the ultrafiltrates and unfiltered incubation mixtures were analyzed for the total protein concentration by the bicinchoninic acid assay for protein concentration (BCA assay; Pierce, Rockford, IL).

Structure (SMILES)	logD at 30 min [1]	Cell Cycle (%) G0/G1 (MCF-7 cells; 0.1 nM)	Cell Cycle (%) G2/M (MCF-7 cells; 0.1 nM)	Cell Cycle (%) S (MCF-7 cells; 0.1 nM)	Cell Cycle (%) G0/G1 (MCF-7 cells; 1 nM)	Cell Cycle (%) G2/M (MCF-7 cells; 1 nM)	Cell Cycle (%) S (MCF-7 cells; 1 nM)	WL after MFD (day 1, mg) [2]	BIO ([3]; oral 5 mg/kg)	BIO ([3]; oral 50 mg/kg)	p53 promoter activity, fold higher than the one provoked by Ral ([4]; higher concentration (1 nM))	p53 promoter activity, fold higher than the one provoked by Ral ([4]; lower concentration (0.1 nM))	Ki (ERα)	IC50 (ERα)	logRBA ERα (ERα)	ERα potency, fold higher than Ral (ERα)	fraction unbound at 5 mg/kg bwt [5]	fraction unbound at 50 mg/kg bwt [5]	logD at 30 min ([1]; n-octanol/phosphate buffer)
CNCCOc1ccc(C(=O)O[C@@H]2/C=C/C(=O)O[C@@H](O)CCC/C=C/[C@@H]3C[C@H](O)C[C@H]32)cc1C(C)=O [Compound 3DPQ-1, (1R,2E,6R,10E,11aS,13S,14aR)-6,13-dihydroxy-4-oxo-4,6,7,8,9,11a,12,13,14,14a-decahydro-1H-cyclopenta[f][1]oxacyclotridecin-1-yl 3-acetyl-4-(2-(methylamino)ethoxy)benzoate]	1.94	72.62 ± 2.47 *^,†,‡,§ %	17.40 ± 3.63 *^,†,‡,§ %	9.98 ± 1.65 *^,†,‡,§ %	75.08 ± 2.13 *^,†,‡,§ %	14.24 ± 2.54 *^,†,‡,§ %	10.69 ± 1.42 *^,†,‡,§ %	310.34 ± 0.34 ^i mg	91	94	0.66 fold	0.733 fold	0.13 nM	0.57 ± 0.54 nM	2.19 ^‡,§	1.30 fold	0.0133	0.0122	–
CC(=O)c1cc(C(=O)O[C@@H]2/C=C/C(=O)O[C@@H](O)CCC/C=C/[C@@H]3C[C@H](O)C[C@H]32)ccc1OCCN(C)C [Compound 3DPQ-2, (1R,2E,6R,10E,11aS,13S,14aR)-6,13-dihydroxy-4-oxo-4,6,7,8,9,11a,12,13,14,14a-decahydro-1H-cyclopenta[f][1]oxacyclotridecin-1-yl 3-acetyl-4-(2-(dimethylamino)ethoxy)benzoate]	1.99	73.64 ± 5.32 *^,†,‡,§ %	14.48 ± 2.54 *^,†,‡,§ %	11.88 ± 0.87 *^,†,‡,§ %	76.10 ± 1.43 *^,†,‡,§ %	11.32 ± 3.25 *^,†,‡,§ %	12.59 ± 1.57 *^,†,‡,§ %	305.03 ± 0.66 mg	92	94	0.66 fold	0.733 fold	0.12 nM	0.54 ± 0.31 nM	2.22 ^†,‡,§	1.37 fold	0.0115	0.0124	–
CC(=O)c1cc(C(=O)OC2/C=C/C(=O)O[C@@H](O)CCC/C=C/[C@@H]3C[C@H](O)C[C@@H]23)ccc1OCCN1CCC=C(C(=O)O)C1 (stereo partly drawn) [Compound 3DPQ-3, 1-(2-(2-acetyl-4-((((2E,6R,10E,11aS,13S,14aR)-6,13-dihydroxy-4-oxo-4,6,7,8,9,11a,12,13,14,14a-decahydro-1H-cyclopenta[f][1]oxacyclotridecin-1-yl)oxy)carbonyl)phenoxy)ethyl)-1,2,5,6-tetrahydropyridine-3-carboxylic acid]	2.07	72.99 ± 1.32 *^,†,‡,§ %	18.03 ± 1.65 *^,†,‡,§ %	8.98 ± 1.64 *^,†,‡,§ %	75.45 ± 1.53 *^,†,‡,§ %	14.87 ± 2.43 *^,†,‡,§ %	9.69 ± 0.94 *^,†,‡,§ %	320,45 ± 0.62 mg	90	93	0.61 fold	0.68 fold	0.1 nM	0.44 ± 0.31 nM	2.31 ^†,‡,§	1.68 fold	0.0134	0.0147	–
CC(=O)c1cc(C(=O)O[C@@H]2/C=C/C(=O)O[C@@H](O)CCC/C=C/[C@@H]3C[C@H](O)C[C@H]32)ccc1OCCN1CC(C(=O)O)=CCC1=O [Compound 3DPQ-9, 1-(2-(2-acetyl-4-((((1R,2E,6R,10E,11aS,13S,14aR)-6,13-dihydroxy-4-oxo-4,6,7,8,9,11a,12,13,14,14a-decahydro-1H-cyclopenta[f][1]oxacyclotridecin-1-yl)oxy)carbonyl)phenoxy)ethyl)-6-oxo-1,2,5,6-tetrahydropyridine-3-carboxylic acid]	–	71.47 ± 0.99 *^,†,‡,§ %	15.56 ± 2.65 *^,†,‡,§ %	12.97 ± 1.65 *^,†,‡,§ %	75.93 ± 152 *^,†,‡,§ %	10.40 ± 3.54 *^,†,‡,§ %	13.68 ± 1.74 *^,†,‡,§ %	315.54 ± 0.65 mg	94 ^‡	97	0.66 fold	0.68 fold	0.1 nM	0.45 ± 0.14 nM	2.30 ^†,‡,§	1.64 fold	0.0128	0.0131	2.02
CC(=O)c1cc(C(=O)O[C@@H]2/C=C/C(=O)O[C@@H](O)CCC/C=C/[C@@H]3C[C@H](O)C[C@H]32)ccc1OCCN1CCCC(O)C1=O (stereo partly drawn) [Compound 3DPQ-12, (1R,2E,6R,10E,11aS,13S,14aR)-6,13-dihydroxy-4-oxo-4,6,7,8,9,11a,12,13,14,14a-decahydro-1H-cyclopenta[f][1]oxacyclotridecin-1-yl 3-acetyl-4-(2-(3-hydroxy-2-oxopiperidin-1-yl)ethoxy)benzoate]	2.06	77.83 ± 0.92 *^,†,‡,§ %	5.21 ± 2.54 *^,†,‡,§ %	16.96 ± 1.23 *^,†,‡,§ %	80.29 ± 1.24 *^,†,‡,§ %	2.05 ± 1.43 *^,†,‡,§ %	17.67 ± 1.32 *^,†,‡,§ %	305.06 ± 0.94 mg	93 ^‡	96	0.55 fold	0.65 fold	0.09 nM	0.4 ± 0.43 nM	2.35 ^†,‡,§	1.85 fold	0.0124	0.0131	–
